# Where “and” joins values, the source holds several entries; their conditions need not be identical. Identical values can stand only once.
# Assays:
# [1] = tested on: SARS-CoV-2; conditions: Vero E6 cells; Wang et al. 2020; read-out: EC50 against SARS-CoV-2; cited from earlier work
# [2] = tested on: healthy volunteers; test: Phase 1 trial of inhaled niclosamide, safety and PK; conditions: after repeated inhalation doses; raw data
# [3] = as above; conditions: human, blood, inhaled, 6 mL of 1% formulation
# [4] = tested on: VeroE6 cells
# [5] = tested on: healthy volunteers; conditions: human, in vivo
# [6] = tested on: Caco-2 cells
# [7] = cited from earlier work
# [8] = tested on: SARS-CoV; conditions: cited from earlier work
# [9] = tested on: ATCC 29213 (A), MRSA 434844 (B) and S. aureus Newman (C); test: Spot test on LB agar, all three strains; format: cell-based; conditions: for effect on bacterial load, API in DMSO: repeat spot test, only highest concentration (niclosamide 100 µg/mL, oxyclozanide 40 µg/mL)
# Description: Following incubation, the formed colonies were counted. […] Duplicates were performed.
# As both positive controls were negative further the experiment was repeated using different concentrations in a spot test using the same methodology described above.
# In this experiment the negative control was the bacterial suspension only.
# [10] = target: T1, TMEM16F (Homo sapiens, UniProt Q4KMQ2); conditions: Cabrita et al. 2019; cited from earlier work
# T1 sequence (Q4KMQ2 1-910): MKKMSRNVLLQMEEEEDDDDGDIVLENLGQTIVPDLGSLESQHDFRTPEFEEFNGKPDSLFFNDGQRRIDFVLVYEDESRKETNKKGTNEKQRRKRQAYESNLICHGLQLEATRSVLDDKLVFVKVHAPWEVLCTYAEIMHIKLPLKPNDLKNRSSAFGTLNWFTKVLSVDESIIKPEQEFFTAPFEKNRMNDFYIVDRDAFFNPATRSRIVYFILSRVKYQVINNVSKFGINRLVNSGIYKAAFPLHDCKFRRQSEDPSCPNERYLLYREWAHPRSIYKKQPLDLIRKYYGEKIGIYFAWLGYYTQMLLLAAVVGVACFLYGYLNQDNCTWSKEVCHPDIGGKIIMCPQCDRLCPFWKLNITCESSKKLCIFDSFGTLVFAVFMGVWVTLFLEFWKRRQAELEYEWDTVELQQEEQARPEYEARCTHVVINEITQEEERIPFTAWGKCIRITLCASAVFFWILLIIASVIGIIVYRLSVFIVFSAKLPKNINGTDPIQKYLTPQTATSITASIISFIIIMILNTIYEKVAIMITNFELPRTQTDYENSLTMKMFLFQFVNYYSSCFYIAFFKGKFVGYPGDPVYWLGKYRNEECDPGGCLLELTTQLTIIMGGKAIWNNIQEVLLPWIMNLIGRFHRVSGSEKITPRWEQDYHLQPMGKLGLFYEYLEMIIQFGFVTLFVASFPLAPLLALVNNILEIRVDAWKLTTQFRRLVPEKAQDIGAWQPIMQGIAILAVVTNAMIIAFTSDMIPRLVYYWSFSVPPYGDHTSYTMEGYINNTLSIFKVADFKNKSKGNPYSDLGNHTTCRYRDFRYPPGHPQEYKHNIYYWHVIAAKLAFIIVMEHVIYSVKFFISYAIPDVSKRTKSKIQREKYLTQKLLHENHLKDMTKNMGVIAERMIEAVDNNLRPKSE
# [11] = target: T2, TMEM16A (Homo sapiens, UniProt Q5XXA6); conditions: Cabrita et al. 2019; cited from earlier work
# T2 sequence (Q5XXA6 1-986): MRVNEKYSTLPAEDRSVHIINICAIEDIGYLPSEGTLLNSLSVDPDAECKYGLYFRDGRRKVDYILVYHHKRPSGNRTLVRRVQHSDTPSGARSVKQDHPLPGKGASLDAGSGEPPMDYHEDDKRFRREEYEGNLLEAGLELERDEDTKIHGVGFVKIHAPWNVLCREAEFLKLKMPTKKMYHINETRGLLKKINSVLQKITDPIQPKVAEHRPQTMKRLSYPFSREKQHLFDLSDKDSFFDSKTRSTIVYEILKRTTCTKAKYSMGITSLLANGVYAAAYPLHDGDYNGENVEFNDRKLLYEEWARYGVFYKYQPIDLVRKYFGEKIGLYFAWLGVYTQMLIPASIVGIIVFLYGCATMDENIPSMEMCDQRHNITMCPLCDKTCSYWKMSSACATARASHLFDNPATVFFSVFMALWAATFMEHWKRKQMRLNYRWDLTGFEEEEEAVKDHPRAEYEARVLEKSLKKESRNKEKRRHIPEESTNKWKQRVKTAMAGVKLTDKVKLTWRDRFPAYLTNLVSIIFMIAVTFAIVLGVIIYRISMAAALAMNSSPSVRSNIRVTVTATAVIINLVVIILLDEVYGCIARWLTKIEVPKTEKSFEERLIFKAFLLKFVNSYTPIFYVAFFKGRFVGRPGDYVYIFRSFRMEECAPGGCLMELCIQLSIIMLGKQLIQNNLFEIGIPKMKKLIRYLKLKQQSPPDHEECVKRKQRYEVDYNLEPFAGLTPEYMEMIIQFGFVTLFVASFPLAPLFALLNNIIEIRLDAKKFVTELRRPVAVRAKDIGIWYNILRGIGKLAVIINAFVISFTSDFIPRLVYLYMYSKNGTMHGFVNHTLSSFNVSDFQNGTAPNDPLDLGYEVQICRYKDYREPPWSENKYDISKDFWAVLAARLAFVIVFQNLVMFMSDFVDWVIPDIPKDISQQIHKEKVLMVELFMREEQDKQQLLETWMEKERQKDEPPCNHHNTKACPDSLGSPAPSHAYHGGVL
# [12] = in vivo
# [13] = tested on: asthmatic mice; conditions: dissolved in corn oil, I.P. injection; cited from earlier work
smiles,measurement,setting,value
CCN(CC)CCCC(C)Nc1ccnc2cc(Cl)ccc12 (stereo not shown) [chloroquine],EC50,[1],1130 nM
O=C(Nc1ccc([N+](=O)[O-])cc1Cl)c1cc(Cl)ccc1O [niclosamide ethanolamine],peak concentration in blood (range),[2],29 to 506 ng/mL
same,half-life,[3]; repeated,2.7 h
same,half-life,[3]; single dose,2 h
same,CC50,[4],> 10000 nM
same,"AUC0-8, mean",[5],509.0 ng·h/mL
same,"maximum plasma concentration (Cmax), mean",[5],238.9 ng/mL
same,CC50,[6],> 10000 nM
O=C(Nc1ccc([N+](=O)[O-])cc1Cl)c1cc(Cl)ccc1O [niclosamide],administered dose detected in the urine (minimum level of absorption),[7]; after oral administration,2-25%
same,maximal serum concentration of niclosamide,"[7]; human volunteers, single oral dose of 2,000 mg",0.25-6.0 µg/mL and 0.76 -18.3 µM
same,oral bioavailability (F),[7]; oral,10%
same,concentration suppressing cytopathic effect (CPE) of SARS-CoV (as low as),[8],1 µm
same,concentration that totally abolished viral antigen synthesis,[8],1.56 µm
same,EC50,[8]; read-out: EC50 of SARS-CoV replication,< 100 nM
same,"effect on bacterial load, API in DMSO",[9],substantially decreased the bacterial load
same,inhibition of Cl- channel TMEM16F,[10],potent inhibitor
same,inhibition of Cl- channel TMEM16A,[11],potent inhibitor
same,"efficacy margin, mean systemic exposure of human oral dose to IC90 against SARS-CoV-2",[12],8 fold
same,effect on mucus and bronchoconstriction in asthmatic mice,[13],"reduced mucus production and secretion, as well as bronchoconstriction"
CC(=O)Oc1ccccc1C(=O)Nc1ncc([N+](=O)[O-])s1 [nitazoxanide],EC50,[1],2120 nM
"O=C(Nc1cc(Cl)cc(Cl)c1O)c1c(O)c(Cl)cc(Cl)c1Cl [oxyclozanide, Oxyclozanide]",efficiency in reducing bacterial load of S. aureus,[9]; comparison of tested formulations,highest efficiency
same,"effect on bacterial load, API in DMSO",[9],substantially decreased the bacterial load

# Reference: patent US20230190685A1, “FORMULATION” (UNION Therapeutics A/S, priority 2020, published 2023)
